Laboratory results reported in paper PMC12408707, “Daunorubicin and its hydroxy metabolite in cardiomyocytes: insights into cellular kinetics, toxicity, DNA damage, and dexrazoxane-induced cardioprotection” (Archives of Toxicology, 2025).

Target: T1, topoisomerase IIβ (TOP2B) (Homo sapiens, UniProt Q02880)
T1 construct: recombinant human TOP2B enzyme (Inspiralis)
Assay: kDNA decatenation assay with recombinant human TOP2B, agarose gel
Type: biochemical

T1 sequence (Q02880 2-1626): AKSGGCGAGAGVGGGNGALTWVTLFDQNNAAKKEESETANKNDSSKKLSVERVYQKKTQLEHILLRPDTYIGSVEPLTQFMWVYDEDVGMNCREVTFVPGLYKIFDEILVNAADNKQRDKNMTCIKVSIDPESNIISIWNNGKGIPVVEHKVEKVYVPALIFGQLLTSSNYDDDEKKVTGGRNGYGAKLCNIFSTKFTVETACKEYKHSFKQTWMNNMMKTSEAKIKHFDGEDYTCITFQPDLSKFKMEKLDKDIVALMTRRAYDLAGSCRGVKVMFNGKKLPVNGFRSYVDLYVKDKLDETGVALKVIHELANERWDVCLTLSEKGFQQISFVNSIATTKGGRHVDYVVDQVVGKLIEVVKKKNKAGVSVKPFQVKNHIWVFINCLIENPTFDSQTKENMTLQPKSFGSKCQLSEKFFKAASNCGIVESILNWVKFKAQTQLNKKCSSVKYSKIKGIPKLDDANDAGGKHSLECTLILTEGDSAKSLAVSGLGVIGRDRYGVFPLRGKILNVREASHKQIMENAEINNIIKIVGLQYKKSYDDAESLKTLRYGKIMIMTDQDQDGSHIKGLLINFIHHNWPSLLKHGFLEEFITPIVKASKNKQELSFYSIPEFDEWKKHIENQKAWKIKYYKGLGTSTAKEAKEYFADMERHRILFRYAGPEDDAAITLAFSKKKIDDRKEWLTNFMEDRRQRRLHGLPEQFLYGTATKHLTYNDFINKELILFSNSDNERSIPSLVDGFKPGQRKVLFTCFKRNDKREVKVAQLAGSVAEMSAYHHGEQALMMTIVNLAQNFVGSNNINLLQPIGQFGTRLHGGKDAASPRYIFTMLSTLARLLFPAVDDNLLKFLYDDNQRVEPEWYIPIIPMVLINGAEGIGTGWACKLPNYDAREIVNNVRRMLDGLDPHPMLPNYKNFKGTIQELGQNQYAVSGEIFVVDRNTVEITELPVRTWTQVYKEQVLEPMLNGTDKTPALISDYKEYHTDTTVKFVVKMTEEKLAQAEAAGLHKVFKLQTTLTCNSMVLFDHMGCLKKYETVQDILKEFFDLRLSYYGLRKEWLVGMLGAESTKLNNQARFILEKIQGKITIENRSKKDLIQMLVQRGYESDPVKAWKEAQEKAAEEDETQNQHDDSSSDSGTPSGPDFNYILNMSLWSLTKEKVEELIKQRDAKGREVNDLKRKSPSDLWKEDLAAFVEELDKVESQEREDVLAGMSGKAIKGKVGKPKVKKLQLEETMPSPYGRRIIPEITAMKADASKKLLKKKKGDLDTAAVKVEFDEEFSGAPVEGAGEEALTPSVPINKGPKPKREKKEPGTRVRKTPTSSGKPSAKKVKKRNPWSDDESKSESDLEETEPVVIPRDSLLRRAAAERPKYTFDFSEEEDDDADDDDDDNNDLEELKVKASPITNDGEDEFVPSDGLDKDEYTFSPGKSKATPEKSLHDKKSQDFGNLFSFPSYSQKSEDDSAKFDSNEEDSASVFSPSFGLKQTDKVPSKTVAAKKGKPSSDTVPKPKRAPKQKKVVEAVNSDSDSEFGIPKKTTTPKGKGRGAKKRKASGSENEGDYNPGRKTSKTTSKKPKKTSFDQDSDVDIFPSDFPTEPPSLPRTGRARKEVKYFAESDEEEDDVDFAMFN

SMILES	IC50
COc1cccc2c1C(=O)c1c(O)c3c(c(O)c1C2=O)C[C@@](O)(C(C)=O)C[C@@H]3O[C@H]1C[C@H](N)[C@H](O)[C@H](C)O1 [DAU, daunorubicin]	4 ± 1 µM
COc1cccc2c1C(=O)c1c(O)c3c(c(O)c1C2=O)C[C@@](O)(C(C)O)C[C@@H]3O[C@H]1C[C@H](N)[C@H](O)[C@H](C)O1 (some centres unmarked) [DAU-ol, daunorubicinol]	17 ± 4 µM
